Counter-ions that a name gives are not always drawn.
How the values were obtained:
[1] = target: T1, HCV polymerase (NS5B) type 1a (Hepatitis C virus genotype 1a, UniProt P26664); assay: Assay of enzyme (HCV polymerase) inhibitory activity, type 1a enzyme; format: biochemical, HCV type 1a (cloned from the blood of patients); conditions: HCV polymerase inhibitory activity (IC50), 1a, type 1a enzyme 1.5 μg/ml, 25° C., 60 min
T1 construct: made in house; host or cells: Escherichia coli (by the 'similar method' of the 1b enzyme)
Procedure, shortened: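 Patient-derived type 1a NS5B (C-terminal 47-aa deletion, His-tagged, E. coli-expressed) at 1.5 μg/ml was reacted with 5 μg/ml 3′UTR-containing substrate RNA, 50 μM ATP/GTP/CTP, 2 μM UTP plus [3H]UTP, pH 7.5, 25° C for 60 min. TCA-precipitated RNA radioactivity was counted; IC50 from ± compound.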

[2] = target: T2, HCV polymerase (NS5B) type 1b (Hepatitis C virus genotype 1b, UniProt P26663); assay: Assay of enzyme (HCV polymerase) inhibitory activity, type 1b enzyme; format: biochemical, HCV BK strain (type 1b); conditions: HCV polymerase inhibitory activity (IC50), 1b, type 1b enzyme 0.5 μg/ml, 25° C., 60 min
T2 construct: a region encoding NS5B (J Virol 1991 March, 65(3), 1105-13, 544 amino acids after deletion of 47 amino acids on the C-terminal); 6xHis (C); made in house; host or cells: Escherichia coli
Procedure, shortened: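 NS5B from HCV BK strain (type 1b), C-terminal 47 aa deleted, C-terminal His6-tagged, E. coli-expressed, 0.5 μg/ml, with ~450 nt substrate RNA carrying the 3′ UTR (polyU, 3′X) at 5 μg/ml. Incubation 60 min at 25 °C with 50 μM ATP/GTP/CTP, 2 μM UTP plus [3H]UTP, pH 7.5 Tris.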

In the case of `CC(=O)N1CCN(S(=O)(=O)c2ccc(C(C)(C)C)cc2)[C@@H](C(=O)NCc2ccc(C(C)C)cc2)C1` [Example 208, (R)-4-acetyl-1-(4-tert-butyl-benzenesulfonyl)-piperazine-2-carboxylic acid 4-isopropyl-benzylamide], the IC50 [1] is reported as < 0.1 µM and the IC50 [2] is reported as < 0.1 µM.

`CN(C)c1ccc(CNC(=O)[C@H]2CNCCN2S(=O)(=O)c2ccc(C(F)(F)F)cc2)cc1` [Example 209, (R)-1-(4-trifluoromethyl-benzenesulfonyl)-piperazine-2-carboxylic acid 4-dimethylamino-benzylamide dihydrochloride] was tested, and the IC50 [1] was > 1 µM and the IC50 [2] was > 1 µM.

Compound `CC(C)c1ccc(CNC(=O)[C@H]2CN(C(=O)Nc3cccnc3)CCN2S(=O)(=O)c2ccc(C(F)(F)F)cc2)cc1` [Example 211, (R)-4-(4-trifluoromethyl-benzenesulfonyl)-piperazine-1,3-dicarboxylic acid 3-(4-isopropyl-benzylamide) 1-pyridin-3-ylamide] has an IC50 [1] of 0.1 to 1 µM and an IC50 [2] of 0.1 to 1 µM.

`COC(=O)CCCCC(=O)N1CCN(S(=O)(=O)c2ccc(C(F)(F)F)cc2)[C@@H](C(=O)NCc2ccc(C(C)C)cc2)C1` [Example 212, 6-[(R)-3-(4-isopropyl-benzylcarbamoyl)-4-(4-trifluoromethyl-benzenesulfonyl)-piperazin-1-yl]-6-oxo-hexanoic acid methyl ester] was tested, and the IC50 [1] was 0.1 to 1 µM and the IC50 [2] was < 0.1 µM.

In the case of `CC(C)c1ccc(CNC(=O)[C@H]2CN(C(=O)CCCCC(=O)O)CCN2S(=O)(=O)c2ccc(C(F)(F)F)cc2)cc1` [Example 213, 6-[(R)-3-(4-isopropyl-benzylcarbamoyl)-4-(4-trifluoromethyl-benzenesulfonyl)-piperazin-1-yl]-6-oxo-hexanoic acid], the IC50 [1] is reported as 0.1 to 1 µM and the IC50 [2] is reported as 0.1 to 1 µM.

`COc1ccc(S(=O)(=O)N2CCN(C(C)=O)C[C@@H]2C(=O)NCc2ccc(C(C)C)cc2)cc1` [Example 214, (R)-4-acetyl-1-(4-methoxy-benzenesulfonyl)-piperazine-2-carboxylic acid 4-isopropyl-benzylamide] showed an IC50 [1] of 0.1 to 1 µM and an IC50 [2] of 0.1 to 1 µM.

`COc1ccc(S(=O)(=O)N2CCN(C(C)=O)C[C@@H]2C(=O)NCc2ccc(C(C)C)cc2)cc1C(C)C` [Example 215, (R)-4-acetyl-1-(3-isopropyl-4-methoxy-benzenesulfonyl)-piperazine-2-carboxylic acid 4-isopropyl-benzylamide] was tested, and the IC50 [1] was 0.1 to 1 µM and the IC50 [2] was < 0.1 µM.

`COc1ccc(S(=O)(=O)N2CCN(C(C)=O)C[C@@H]2C(=O)NCc2ccc(C(C)C)cc2)cc1Cl` [Example 216, (R)-4-acetyl-1-(3-chloro-4-methoxy-benzenesulfonyl)-piperazine-2-carboxylic acid 4-isopropyl-benzylamide] was tested, and the IC50 [1] was 0.1 to 1 µM and the IC50 [2] was 0.1 to 1 µM.

`COC(=O)Cc1cc(S(=O)(=O)N2CCN(C(C)=O)C[C@@H]2C(=O)NCc2ccc(C(C)C)cc2)ccc1OC` [Example 217, {5-[(R)-4-acetyl-2-(4-isopropyl-benzylcarbamoyl)-piperazine-1-sulfonyl]-2-methoxy-phenyl}-acetic acid methyl ester] was tested, and the IC50 [1] was > 1 µM and the IC50 [2] was > 1 µM.

`COC(=O)CCc1cc(S(=O)(=O)N2CCN(C(C)=O)C[C@@H]2C(=O)NCc2ccc(C(C)C)cc2)ccc1OC` [Example 218, 3-{5-[(R)-4-acetyl-2-(4-isopropyl-benzylcarbamoyl)-piperazine-1-sulfonyl]-2-methoxy-phenyl}-propionic acid methyl ester] was tested, and the IC50 [1] was 0.1 to 1 µM and the IC50 [2] was 0.1 to 1 µM.

In the case of `CC(C)c1ccc(CNC(=O)[C@H]2CN(C(=O)Cn3ccnc3)CCN2S(=O)(=O)c2ccc(C(F)(F)F)cc2)cc1` [Example 219, (R)-4-(2-imidazol-1-yl-acetyl)-1-(4-trifluoromethyl-benzenesulfonyl)-piperazine-2-carboxylic acid 4-isopropyl-benzylamide], the IC50 [1] is reported as < 0.1 µM and the IC50 [2] is reported as < 0.1 µM.

With `CC(C)c1ccc(CNC(=O)[C@H]2CN(C(=O)Cn3ccnn3)CCN2S(=O)(=O)c2ccc(C(F)(F)F)cc2)cc1` [Example 220, (R)-4-(2-[1,2,3]triazol-1-yl-acetyl)-1-(4-trifluoromethyl-benzenesulfonyl)-piperazine-2-carboxylic acid 4-isopropyl-benzylamide] the IC50 [1] was < 0.1 µM and the IC50 [2] was < 0.1 µM.

With `COc1ccc(S(=O)(=O)N2CCN(C(C)=O)C[C@@H]2C(=O)NCc2ccc(C(C)C)cc2)cc1CC(=O)O` [Example 221, {5-[(R)-4-acetyl-2-(4-isopropyl-benzylcarbamoyl)-piperazine-1-sulfonyl]-2-methoxy-phenyl}-acetic acid] the IC50 [1] was > 1 µM and the IC50 [2] was > 1 µM.

Compound `COc1ccc(S(=O)(=O)N2CCN(C(C)=O)C[C@@H]2C(=O)NCc2ccc(C(C)C)cc2)cc1CCC(=O)O` [Example 222, 3-{5-[(R)-4-acetyl-2-(4-isopropyl-benzylcarbamoyl)-piperazine-1-sulfonyl]-2-methoxy-phenyl}-propionic acid] has an IC50 [1] of 0.1 to 1 µM and an IC50 [2] of 0.1 to 1 µM.

`COC(=O)C(C)(C)c1ccc(CNC(=O)[C@H]2CN(C(C)=O)CCN2S(=O)(=O)c2ccc(C(C)C)cc2)cc1` [Example 223, 2-[4-({[(R)-4-acetyl-1-(4-isopropyl-benzenesulfonyl)-piperazine-2-carbonyl]-amino}-methyl)-phenyl]-2-methyl-propionic acid methyl ester] gave an IC50 [1] of 0.1 to 1 µM and an IC50 [2] of 0.1 to 1 µM.

With `CC(=O)N1CCN(S(=O)(=O)c2ccc(C(C)C)cc2)[C@@H](C(=O)NCc2ccc(CCO)cc2)C1` [Example 224, (R)-4-acetyl-1-(4-isopropyl-benzenesulfonyl)-piperazine-2-carboxylic acid 4-(2-hydroxy-ethyl)-benzylamide] the IC50 [1] was > 1 µM and the IC50 [2] was > 1 µM.

In the case of `CC(C)c1ccc(CNC(=O)[C@H]2CN(C(=O)CN)CCN2S(=O)(=O)c2ccc(C(F)(F)F)cc2)cc1` [Example 225, (R)-4-(2-amino-acetyl)-1-(4-trifluoromethyl-benzenesulfonyl)-piperazine-2-carboxylic acid 4-isopropyl-benzylamide hydrochloride], the IC50 [1] is reported as 0.1 to 1 µM and the IC50 [2] is reported as 0.1 to 1 µM.

With `CC(=O)N1CCN(S(=O)(=O)c2ccc(C(C)C)cc2)[C@@H](C(=O)NCc2ccc(CO)cc2)C1` [Example 226, (R)-4-acetyl-1-(4-isopropyl-benzenesulfonyl)-piperazine-2-carboxylic acid 4-hydroxymethyl-benzylamide] the IC50 [1] was > 1 µM and the IC50 [2] was > 1 µM.

With `CSc1ccc(CNC(=O)[C@H]2CN(C(C)=O)CCN2S(=O)(=O)c2ccc(C(C)C)cc2)cc1` [Example 227, (R)-4-acetyl-1-(4-isopropyl-benzenesulfonyl)-piperazine-2-carboxylic acid 4-methylsulfanyl-benzylamide] the IC50 [1] was 0.1 to 1 µM and the IC50 [2] was 0.1 to 1 µM.

Work on `CC(C)c1ccc(CNC(=O)[C@H]2CN(C(=O)Cn3cccn3)CCN2S(=O)(=O)c2ccc(C(F)(F)F)cc2)cc1` [Example 228, (R)-4-(2-pyrazol-1-yl-acetyl)-1-(4-trifluoromethyl-benzenesulfonyl)-piperazine-2-carboxylic acid 4-isopropyl-benzylamide] yielded an IC50 [1] of 0.1 to 1 µM and an IC50 [2] of 0.1 to 1 µM.

In the case of `CC(C)c1ccc(CNC(=O)[C@H]2CN(C(=O)Cn3cncn3)CCN2S(=O)(=O)c2ccc(C(F)(F)F)cc2)cc1` [Example 229, (R)-4-(2-[1,2,4]triazol-1-yl-acetyl)-1-(4-trifluoromethyl-benzenesulfonyl)-piperazine-2-carboxylic acid 4-isopropyl-benzylamide], the IC50 [1] is reported as < 0.1 µM and the IC50 [2] is reported as < 0.1 µM.

In the case of `CC(C)c1ccc(CNC(=O)[C@H]2CN(C(=O)Cn3cnnc3)CCN2S(=O)(=O)c2ccc(C(F)(F)F)cc2)cc1` [Example 230, (R)-4-(2-[1,2,4]triazol-4-yl-acetyl)-1-(4-trifluoromethyl-benzenesulfonyl)-piperazine-2-carboxylic acid 4-isopropyl-benzylamide], the IC50 [1] is reported as < 0.1 µM and the IC50 [2] is reported as < 0.1 µM.

`CC(=O)N1CCN(S(=O)(=O)c2ccc(C(C)C)cc2)[C@@H](C(=O)NCc2ccc(C(C)(C)C(=O)O)cc2)C1` [Example 231, 2-[4-({[(R)-4-acetyl-1-(4-isopropyl-benzenesulfonyl)-piperazine-2-carbonyl]-amino}-methyl)-phenyl]-2-methyl-propionic acid] was tested, and the IC50 [1] was > 1 µM and the IC50 [2] was > 1 µM.

Work on `CCc1ccc(CNC(=O)[C@H]2CN(C(C)=O)CCN2S(=O)(=O)c2ccc(C(C)C)cc2)cc1` [Example 232, (R)-4-acetyl-1-(4-isopropyl-benzenesulfonyl)-piperazine-2-carboxylic acid 4-ethyl-benzylamide] yielded an IC50 [1] of 0.1 to 1 µM and an IC50 [2] of 0.1 to 1 µM.

`CC(=O)N1CCN(S(=O)(=O)c2ccc(C(C)C)cc2)[C@@H](C(=O)NCc2ccc(C(C)(C)C(=O)N(C)C)cc2)C1` [Example 233, (R)-4-acetyl-1-(4-isopropyl-benzenesulfonyl)-piperazine-2-carboxylic acid 4-(1-dimethylcarbamoyl-1-methyl-ethyl)-benzylamide] was tested, and the IC50 [1] was > 1 µM and the IC50 [2] was > 1 µM.

With `CC(=O)N1CCN(S(=O)(=O)c2ccc(C(C)C)cc2)[C@@H](C(=O)NCc2ccc(C3(CO)CC3)cc2)C1` [Example 234, (R)-4-acetyl-1-(4-isopropyl-benzenesulfonyl)-piperazine-2-carboxylic acid 4-(1-hydroxymethyl-cyclopropyl)-benzylamide] the IC50 [1] was > 1 µM and the IC50 [2] was > 1 µM.

— patent US8017612B2, “Piperazine compound and use thereof as a HCV polymerase inhibitor” (priority 2006, dated 2011)
